In assay [1] the test system is EGFR. The experiment in a line: western blot with phospho-protein-specific antibodies, EGFR activation. It counts as cell-based, human. To be noted: three EGFR-high liver cancer cell lines. The method, then: (§1) FIG. 3. […] Activation of EGFR and ERK1/2 was analyzed. HSP90 served as a control.
Assay [2] relates to advanced HCC. To be noted: first-line treatment of advanced HCC; cited from earlier work.
The target in assay [3] is FGFR2 (Homo sapiens, UniProt P21802). To be noted: cited from earlier work.
Assay [4] deals with ERK1/2. The experiment in a line: western blot with phospho-protein-specific antibodies, ERK1/2 activation. In kind it is cell-based, human. As to conditions: three EGFR-high liver cancer cell lines. The method, then:
as §1

In assay [5] the test system is SNU449 cells. The experiment in a line: EGFR shRNA knockdown with lenvatinib, proliferation. It counts as cell-based, human. As to conditions: SNU449 cells with EGFR shRNA vectors, about 10 days. The method, then:
FIG. 1. […] Cell growth was assessed by a colony formation assay. […] Viability was assessed by CellTiter-Blue assays. (c) The level of EGFR knockdown was determined by western blot for three independent shRNAs. HSP90 protein level served as a loading control.
After this, genomic DNA was isolated from both treated and untreated cells, and the relative abundance of gRNA was determined by next generation sequencing of the bar code contained in each gRNA vector in three biological replicates as described (Evers et al., 2016. Nat Biotechnol 34: 631-3).

Assay [6] addresses VEGFR family. As to conditions: cited from earlier work.
Assay [7] deals with SNU449 xenograft. To be noted: nude mice, lenvatinib 4 mg/kg, gefitinib 80 mg/kg, about 27 days.
Assay [8] has as its system advanced HCC patients. To be noted: clinical trials; cited from earlier work.

The values below come from patent US20220280499A1, “NOVEL DRUG COMBINATIONS FOR TREATMENT OF A CARCINOMA” (Stichting Het Nederlands Kanker Instituue-Antoni van …, priority 2019, published 2022).

Chain of FGFR2 (P21802 22-821, species assumed): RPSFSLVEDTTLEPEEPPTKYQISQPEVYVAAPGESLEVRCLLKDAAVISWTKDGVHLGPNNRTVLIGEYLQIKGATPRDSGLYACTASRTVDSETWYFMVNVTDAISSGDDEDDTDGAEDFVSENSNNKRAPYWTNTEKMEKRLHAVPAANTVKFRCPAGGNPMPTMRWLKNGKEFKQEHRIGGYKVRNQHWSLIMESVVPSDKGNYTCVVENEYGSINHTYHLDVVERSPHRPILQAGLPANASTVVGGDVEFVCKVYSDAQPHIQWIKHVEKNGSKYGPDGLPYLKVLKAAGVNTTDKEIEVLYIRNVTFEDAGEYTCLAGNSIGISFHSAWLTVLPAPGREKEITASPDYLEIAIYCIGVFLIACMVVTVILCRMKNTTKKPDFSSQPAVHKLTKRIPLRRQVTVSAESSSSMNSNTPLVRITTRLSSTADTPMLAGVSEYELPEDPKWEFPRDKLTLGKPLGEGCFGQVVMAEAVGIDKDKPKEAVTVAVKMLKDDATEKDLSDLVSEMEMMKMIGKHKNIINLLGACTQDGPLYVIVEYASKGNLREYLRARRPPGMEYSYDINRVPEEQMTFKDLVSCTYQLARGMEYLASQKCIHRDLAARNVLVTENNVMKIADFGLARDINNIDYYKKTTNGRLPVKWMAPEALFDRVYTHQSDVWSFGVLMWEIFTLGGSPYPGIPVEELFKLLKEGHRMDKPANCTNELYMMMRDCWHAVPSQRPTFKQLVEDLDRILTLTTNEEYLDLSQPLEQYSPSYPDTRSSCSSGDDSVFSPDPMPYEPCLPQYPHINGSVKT

Usually Ki stands for the equilibrium dissociation constant of an inhibitor or competing ligand from its target. Consider `COc1cc2nccc(Oc3ccc(NC(=O)NC4CC4)c(Cl)c3)c2cc1C(N)=O` [lenvatinib, 4-[3-chloro-4-(cyclopropylcarbamoylamino)phenoxy]-7-methoxyquinoline-6-carboxamide], for which the “Tyr 1068 phosphorylation of EGFR (activation of the receptor)” value in assay [1] is recorded as “strong increase”. Moreover, the overall survival in assay [2] was 13.6 months. Besides, the Ki is 8.21 nM in assay [3] and 1 nM in assay [6]. Further, the “phosphorylation (activation) of ERK1/2” value in assay [4] is recorded as “strong increase”. The “proliferation with suppression of EGFR (shRNA) in combination” value in assay [5] is on record as “marked inhibition of proliferation”. The “tumor growth / antitumor effect” value in assay [7] is given as “little antitumor effect”.

With `COc1cc2ncnc(Nc3ccc(F)c(Cl)c3)c2cc1OCCCN1CCOCC1` [gefitinib, N-(3-chloro-4-fluorophenyl)-7-methoxy-6-(3-morpholin-4-ylpropoxy)quinazolin-4-amine], the “tumor growth / antitumor effect” value in assay [7] was “little antitumor effect”.

Regarding `CNC(=O)c1cc(Oc2ccc(NC(=O)Nc3ccc(Cl)c(C(F)(F)F)c3)cc2)ccn1` [sorafenib, 4-[4-[[4-chloro-3-(trifluoromethyl)phenyl]carbamoylamino]phenoxy]-N-methylpyridine-2-carboxamide], the overall survival in assay [2] is 12.3 months. The “improvement of survival compared to placebo” value in assay [8] was “less than 3 months”.
